Data: patent publication US20160077084A1, “AMPHIBIAN OOCYTE OR EMBRYO BIOASSAY” (THE BOARD OF TRUSTEES OF THE UNIVERSITY OF ARKANSAS, priority 2013, published 2016)
“Also recorded” adds a separate entry of the source.

Assays:
Xenopus oocytes [1] = experiment: Xenopus oocyte bioassay: oocyte maturation (GVBD) in the absence of progesterone; assay type: cell-based; details: for activation of GVBD: no progesterone (FIG. 6)
MAP kinase (MAPK) = experiment: Western blot of treated oocytes, MAP kinase phosphorylation; assay type: cell-based, Xenopus
From the text: (§1) To begin to decipher the mechanism of action of the compounds that modified oocyte maturation, their effects on regulators of the meiotic cell cycle were examined. In particular, Musashi (Msi1) phosphorylation, Msi2 phosphorylation, MAP kinase phosphorylation, and Cdc2 (also called CDK1) dephosphorylation were examined in Xenopus oocytes treated with a modifying compound or only DMSO (i.e., control). The oocytes were processed for Western blot analysis using standard procedures, and the blots were probed with antibodies specific for phosphorylated or non-phosphorylated forms of the proteins of interest.

Xenopus oocytes [2] = experiment: Xenopus oocyte bioassay: oocyte maturation (GVBD) in the absence of progesterone; assay type: cell-based; details: screen at 100 μM
Protocol: (§2) Oocyte maturation was monitored at regular intervals using a high content image capture procedure. Immature stage VI Xenopus oocytes were transferred to wells of a flat bottom 96-well plate containing about 178 μL of L15 culture media. The oocytes were transferred using wide mouth 200 μL pipette tips with minimal transfer of culture medium (e.g., about 20 μL). Generally, the oocytes oriented with the dark-pigmented animal hemisphere facing up due to the higher density of the yolk-containing vegetal hemisphere. Incorrectly orientated oocytes were gently manipulated using a drawn-out capillary tube or other tool to rotate them into the correct orientation. […] The oocytes were incubated for about 16 hours (i.e., overnight) at 16-25° C. in the presence of 1% DMSO (i.e., 2 μL of 100% DMSO).
Oocyte maturation was stimulated by the addition of progesterone. For this, 2 μL of 1000× stock solution (2 mg/mL in ethanol) was added to the appropriate wells to yield a final concentration of 2 μg/mL (although other concentrations of progesterone may be employed). […]
The plate was imaged prior to and after addition of progesterone (i.e., images were taken at regular intervals over a period of 7 hours). Oocyte maturation was phenotypically assessed by the appearance of a white spot at the animal pole of the oocyte. […]

Cdc2 (also called CDK1) = experiment: Western blot of treated oocytes, Cdc2 (CDK1) dephosphorylation / MPF activation; assay type: cell-based, Xenopus; details: for dephosphorylation of cdc2 (CDK1), activation of MPF: activators, no progesterone, PNR-5-46 5 μM, JVM-9 100 μM (FIG. 8A)
From the text: as §1

Xenopus oocytes [3] = experiment: Xenopus oocyte bioassay: progesterone-induced oocyte maturation (GVBD); assay type: cell-based
Protocol: as §2
Oocyte maturation was stimulated by the addition of progesterone. For this, 2 μL of 1000× stock solution (2 mg/mL in ethanol) was added to the appropriate wells to yield a final concentration of 2 μg/mL (although other concentrations of progesterone may be employed). The 96-well plate was imaged from the top-down (see FIG. 4E) using a 36-megapixel Nikon D800 SLR camera with an AF Micro Nikkor 60 mm, f/2.8 lens, mounted on a dedicated copy stand (with adjustable flanking light sources).
The plate was imaged prior to and after addition of progesterone (i.e., images were taken at regular intervals over a period of 7 hours). Oocyte maturation was phenotypically assessed by the appearance of a white spot at the animal pole of the oocyte. The white spot is due to migration of the germinal vesicle towards the animal pole prior to germinal vesicle breakdown (GVBD). The high resolution images were digitally zoomed after capture to analyze the maturation status of oocytes in individual wells of the plate (FIGS. 4A-D).
The Xenopus oocyte bioassay was used to screen a collection of about 2000 low molecular weight small molecules. Oocytes were distributed among multi-well plates essentially as described above in Example 1. The test compounds were dissolved in DMSO to make 100× stock solutions. The test compounds were added to the appropriate wells at a final concentration of 100 μM (and 1% DMSO). No drug control oocytes were exposed to 1% DMSO only. Sixteen hours later, progesterone was added to the appropriate wells, with the first and last wells of each plate containing the no drug control oocytes. The rate of maturation in the first and last wells served as an intra-assay control for time taken for progesterone addition across each multiwell plate. The plates were imaged essentially as described above in Example 1.

U87 = experiment: Neurosphere formation, glioblastoma cell line U87; assay type: cell-based; details: lowest dose tested 0.5 μM (FIG. 11B)
Protocol: (§3) The activity of the three test compounds to inhibit neurosphere formation was also tested in a neuroblastoma cell line SHSY5Y and a glioblastomoa cell line U87. All three compounds attenuated neurosphere formation in both cell lines, to varying degrees of efficacy (FIGS. 11A,B). […] None of the compounds affected cell viability.

MDA MB231 cells = experiment: Mammosphere formation (breast cancer stem cell self-renewal), MDA MB231; assay type: cell-based; details: compound first 3 days, scored day 14 (P2), 50, 5 and 0.5 μM
From the text: (§4) Mammosphere culture growth presents a useful indicator of the presence of breast cancer cells with stem cell-like properties. Breast cancer cell lines grown as mammospheres (under non-adherent plating conditions) recapitulate the three-dimensional organization of tumors. Importantly, assessment of stem cell self-renewal capacity can be achieved through dispersion of mammospheres to single cells and subsequent limited dilution replating. […] At day 7, mammospheres were collected, dispersed to single cells and replated at limiting dilution (P1). Spheroids were scored at day 14 (P2). Mammosphere forming units (MFUs) are defined as spheroid bodies >100 μm (MCF-7 cells) or >65 μm (MDA MB231 cells) diameter after 7 (P1) or 14 (P2) days growth in non-adherent culture.

SHSY5Y = experiment: Neurosphere formation, neuroblastoma cell line SHSY5Y; assay type: cell-based; details: lowest dose tested 0.5 μM (FIG. 11A)
Protocol: as §3

MCF-7 cells = experiment: Mammosphere formation (breast cancer stem cell self-renewal), MCF-7; assay type: cell-based; details: compound first 3 days, scored day 14 (P2), 50, 5 and 0.5 μM
From the text: as §4

MCF-7 or MDA MB231 cells = experiment: General cell viability of breast cancer cells; assay type: cell-based; details: 0.5 μM dose
Musashi1 (Msi1) = experiment: Western blot of treated oocytes, Msi1 phosphorylation; assay type: cell-based, Xenopus
From the text: as §1

Musashi2 (Msi2) = experiment: Western blot of treated oocytes, Msi2 phosphorylation; assay type: cell-based, Xenopus; details: FIG. 8B
From the text: as §1

[4] = activators, no progesterone, PNR-5-46 5 μM, JVM-9 100 μM (FIG. 8A)
[5] = in response to progesterone (FIG. 9)

Structure (SMILES)	phosphorylation of MAP kinase (MAP kinase (MAPK); [4])	progesterone-independent oocyte maturation (activator) (Xenopus oocytes [2])	dephosphorylation of cdc2 (CDK1), activation of MPF (Cdc2 (also called CDK1))	neurosphere formation / stem cell self-renewal (U87)	mammosphere formation relative to DMSO-treated control cells (MDA MB231 cells)	neurosphere formation / stem cell self-renewal (SHSY5Y)	mammosphere formation relative to DMSO-treated control cells (MCF-7 cells)	general cell viability (MCF-7 or MDA MB231 cells)	other results
C/C1=C\CC[C@@]2(C)O[C@H]2[C@H]2OC(=O)[C@@H](CNc3nc4ccccc4[nH]3)[C@@H]2CC1 [JVM-9]	promoted phosphorylation	activation of maturation; also recorded: activators; also recorded: activated spontaneous oocyte maturation	dephosphorylation of cdc2	–	–	–	–	–	activation of GVBD (Xenopus oocytes [1]; 10 μM): less effective; activation of GVBD (Xenopus oocytes [1]; 100 and 50 μM): activated GVBD
C/C1=C\CC[C@@]2(C)O[C@H]2[C@H]2OC(=O)[C@@H](CNCCCn3ccnc3)[C@@H]2CC1 [JVM-20]	–	–	–	particularly effective	effectively inhibited	particularly effective	effectively inhibited	no significant effect	effect on progesterone-stimulated maturation (Xenopus oocytes [3]; from 1 to 50 μM): accelerate; effect on progesterone-stimulated maturation (Xenopus oocytes [3]; high dose (100 μM)): inhibit
C/C1=C\CC[C@@]2(C)O[C@H]2[C@H]2OC(=O)/C(=C\c3ccc(N)cc3)[C@@H]2CC1 [PNR-5-41]	–	–	–	Significant inhibition	did not	Significant inhibition	did not	–	EC50 (Xenopus oocytes [3]; Xenopus laevis, Oocyte, progesterone-induced, p<0.05, n=5 vs DMSO only, read-out: EC50 (inhibition of progesterone-induced maturation)): 5 µM; effect on rate of progesterone-induced oocyte maturation (inhibitor) (Xenopus oocytes [3]; progesterone-induced): attenuation of progesterone-induced GVBD; also recorded: inhibitor; also recorded: inhibited progesterone-induced maturation in a dose-dependent manner; phosphorylation of MAP kinase (MAP kinase (MAPK); [5]): did not affect phosphorylation; phosphorylation of Msi1 (Musashi1 (Msi1); [5]): did not affect phosphorylation; de-phosphorylation and activation of cyclin B/CDK1 (MPF) (Cdc2 (also called CDK1); [5]): blocked
C/C1=C\CC[C@@]2(C)O[C@H]2[C@H]2OC(=O)/C(=C\c3cccc(Br)c3)[C@@H]2CC1 [PNR-5-46]	promoted phosphorylation	hormone-independent activation of maturation; also recorded: activators; also recorded: induced oocyte maturation	dephosphorylation of cdc2	not	effectively inhibited	not	effectively inhibited	no significant effect	EC50 (Xenopus oocytes [1]; Xenopus laevis, Oocyte, absence of progesterone, read-out: EC50 (activation of oocyte maturation)): 7 µM; percent of oocytes that initiated GVBD (Xenopus oocytes [1]; by about 4 hours, no progesterone, 100 μM PNR-5-46 (FIG. 5)): About 35%; activation (phosphorylation) of Msi2 (Musashi2 (Msi2)): triggered activation; activation (phosphorylation) of Msi1 (Musashi1 (Msi1); not shown): triggered activation
CC(=O)[C@H]1CC[C@H]2[C@@H]3CCC4=CC(=O)CC[C@]4(C)[C@H]3CC[C@]12C [progesterone, reference compound]	–	–	–	–	–	–	–	–	percent of oocytes that started GVBD (Xenopus oocytes [3]; by about 7 hours, progesterone-treated oocytes (FIG. 5)): About 35%
